According to publication PMC11790914, “Chemogenomics for steroid hormone receptors (NR3)” (Communications Chemistry, 2025):
“And” between values parts separate entries of the source, which are not always exact repeats. Identical values can stand only once. Like-named read-outs stand apart in the source and are kept apart here.

Columns and labels:
[1] = test system: NF-κB activity in HEK293 NF-κB reporter cells; experiment: NF-kB activity assay (GFP reporter, ionomycin/PMA); assay type: cell-based; conditions: for Mean NFκB response: n=3; for NF-κB activity (inflammatory response to ionomycin/PMA): HEK293 NF-κB reporter cells, compounds at recommended concentrations, imaged over 24 h, n = 3
Outline: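 HEK293 NF-κB GFP reporter cells given compound in 0.1% DMSO for 4 h, then stimulated with ionomycin 100 ng/mL plus PMA 10 ng/mL. Imaged every 90 min over 24 h; GFP-positive cell count normalized to confluence, three independent biological replicates.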

[2] = molecular target: T1, TRIM24 (Homo sapiens, UniProt O15164); experiment: Liability panel screening by DSF: TRIM24; assay type: binding; conditions: read-out: Mean ΔTM TRIM24
T1 construct: This panel comprised ten highly ligandable kinases and bromodomains; made in house
T1 sequence (O15164 899-1004 limits assumed): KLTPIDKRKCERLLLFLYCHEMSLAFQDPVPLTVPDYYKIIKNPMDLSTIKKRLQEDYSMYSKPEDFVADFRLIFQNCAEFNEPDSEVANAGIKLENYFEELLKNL
Outline: (§1)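 Thermal shift: in-house recombinant protein at 2 µM in 10 mM HEPES pH 7.5 with 500 mM NaCl, SYPRO Orange 1:1000, heated at 3 °C/min to 85 °C in technical duplicates. Tm is the Boltzmann inflection point, reported as ∆Tm in K.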

[3] = molecular target: T2, FGFR3 (Homo sapiens, UniProt P22607); experiment: Liability panel screening by DSF: FGFR3; assay type: binding; conditions: read-out: Mean ΔTM FGFR3
T2 construct: made in house
T2 sequence (P22607 23-806, species assumed): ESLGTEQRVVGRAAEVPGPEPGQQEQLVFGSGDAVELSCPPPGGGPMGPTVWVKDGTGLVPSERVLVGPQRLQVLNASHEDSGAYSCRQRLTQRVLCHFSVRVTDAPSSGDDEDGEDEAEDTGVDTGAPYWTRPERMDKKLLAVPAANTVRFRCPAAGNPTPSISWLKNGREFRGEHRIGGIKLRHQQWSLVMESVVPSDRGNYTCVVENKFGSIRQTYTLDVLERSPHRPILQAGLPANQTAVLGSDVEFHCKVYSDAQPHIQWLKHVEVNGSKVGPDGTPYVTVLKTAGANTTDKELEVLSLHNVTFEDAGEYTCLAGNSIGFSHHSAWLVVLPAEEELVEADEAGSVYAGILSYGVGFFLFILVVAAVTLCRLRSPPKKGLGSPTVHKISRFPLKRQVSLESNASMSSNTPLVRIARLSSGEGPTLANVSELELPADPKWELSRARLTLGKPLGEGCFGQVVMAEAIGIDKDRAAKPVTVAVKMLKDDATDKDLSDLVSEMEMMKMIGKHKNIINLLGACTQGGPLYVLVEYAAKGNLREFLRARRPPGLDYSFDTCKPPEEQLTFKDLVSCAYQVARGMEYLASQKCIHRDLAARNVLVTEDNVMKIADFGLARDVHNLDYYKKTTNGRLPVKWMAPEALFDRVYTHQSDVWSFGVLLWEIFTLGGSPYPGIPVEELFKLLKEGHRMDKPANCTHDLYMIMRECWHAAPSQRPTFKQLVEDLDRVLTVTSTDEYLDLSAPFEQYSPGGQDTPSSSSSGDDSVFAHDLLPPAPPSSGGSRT
Outline: as §1

[4] = test system: HEK293T cells; experiment: Cytotoxicity: metabolic activity (WST-8 / CCK-8 assay); conditions: 1 µM; HEK293T, 24 h; WST-8; normalized to 0.1% DMSO; single replicates
[5] = molecular target: T3, CDK2 (Homo sapiens, UniProt P24941); experiment: Liability panel screening by DSF: CDK2; assay type: binding; conditions: read-out: Mean ΔTM CDK2
T3 construct: made in house
Outline: as §1

[6] = test system: HEK293T cells; experiment: Cytotoxicity: growth-rate (change in confluence over 24 h); conditions: 1 µM, normalized to 0.1% DMSO control, single replicates (n=1...)
[7] = molecular target: T4, CSNK1D (Homo sapiens, UniProt P48730); experiment: Liability panel screening by DSF: CSNK1D; assay type: binding; conditions: read-out: Mean ΔTM CSNK1D
T4 construct: made in house
T4 sequence (P48730 whole entry, species assumed): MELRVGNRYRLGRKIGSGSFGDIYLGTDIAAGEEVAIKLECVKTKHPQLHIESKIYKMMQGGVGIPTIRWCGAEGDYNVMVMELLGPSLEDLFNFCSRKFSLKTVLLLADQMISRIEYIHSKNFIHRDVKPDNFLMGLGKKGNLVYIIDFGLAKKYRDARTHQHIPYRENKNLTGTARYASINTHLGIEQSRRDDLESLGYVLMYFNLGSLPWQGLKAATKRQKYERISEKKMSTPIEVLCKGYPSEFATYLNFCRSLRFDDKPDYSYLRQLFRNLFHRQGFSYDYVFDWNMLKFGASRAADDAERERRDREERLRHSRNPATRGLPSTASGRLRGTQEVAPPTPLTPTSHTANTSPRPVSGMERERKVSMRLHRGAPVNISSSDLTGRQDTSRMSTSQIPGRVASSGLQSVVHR
Outline: as §1

[8] = molecular target: T5, BRPF1 (Homo sapiens, UniProt P55201); experiment: Liability panel screening by DSF: BRPF1; assay type: binding; conditions: read-out: Mean ΔTM BRPF1
T5 construct: This panel comprised ten highly ligandable kinases and bromodomains; made in house
T5 sequence (P55201 628-732 limits assumed): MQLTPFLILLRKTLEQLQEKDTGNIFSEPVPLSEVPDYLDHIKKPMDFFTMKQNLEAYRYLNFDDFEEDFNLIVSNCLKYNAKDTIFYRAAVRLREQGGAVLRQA
Outline: as §1

[9] = molecular target: T6, BRD4 (Homo sapiens, UniProt O60885); experiment: Liability panel screening by DSF: BRD4; assay type: binding; conditions: read-out: Mean ΔTM BRD4
T6 construct: This panel comprised ten highly ligandable kinases and bromodomains; made in house
Outline: as §1

[10] = molecular target: T7, GSK3B (Homo sapiens, UniProt P49841); experiment: Liability panel screening by DSF: GSK3B; assay type: binding; conditions: read-out: Mean ΔTM GSK3B
T7 construct: made in house
T7 sequence (P49841 whole entry, species assumed): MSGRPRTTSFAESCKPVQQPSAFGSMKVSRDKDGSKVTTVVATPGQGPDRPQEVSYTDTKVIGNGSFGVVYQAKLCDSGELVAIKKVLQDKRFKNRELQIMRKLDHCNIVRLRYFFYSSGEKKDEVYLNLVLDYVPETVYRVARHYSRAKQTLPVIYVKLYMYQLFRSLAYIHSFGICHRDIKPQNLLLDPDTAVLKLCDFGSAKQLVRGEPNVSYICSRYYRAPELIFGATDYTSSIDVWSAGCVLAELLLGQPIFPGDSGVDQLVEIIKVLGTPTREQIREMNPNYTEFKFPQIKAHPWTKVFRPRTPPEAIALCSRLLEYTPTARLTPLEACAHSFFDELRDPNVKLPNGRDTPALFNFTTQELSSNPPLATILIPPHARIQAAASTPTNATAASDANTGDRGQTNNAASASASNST

[11] = test system: HEK293T cells; experiment: Cytotoxicity: necrosis induction (red fluorescent dye for permeable plasma membranes); assay type: cell-based; conditions: 1 µM, 24 h, necrotic cell count normalized to 0.1% DMSO, single replicates;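 also: compounds applied in DMEM high glucose with 0.1% FCS and 0.1% DMSO, necrotic HEK293T cells counted by red staining of cells whose plasma membranes had become permeable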
[12] = molecular target: T8, AURKA (Homo sapiens, UniProt O14965); experiment: Liability panel screening by DSF: AURKA; assay type: binding; conditions: read-out: Mean ΔTM AURKA
T8 construct: made in house
T8 sequence (O14965 1-403): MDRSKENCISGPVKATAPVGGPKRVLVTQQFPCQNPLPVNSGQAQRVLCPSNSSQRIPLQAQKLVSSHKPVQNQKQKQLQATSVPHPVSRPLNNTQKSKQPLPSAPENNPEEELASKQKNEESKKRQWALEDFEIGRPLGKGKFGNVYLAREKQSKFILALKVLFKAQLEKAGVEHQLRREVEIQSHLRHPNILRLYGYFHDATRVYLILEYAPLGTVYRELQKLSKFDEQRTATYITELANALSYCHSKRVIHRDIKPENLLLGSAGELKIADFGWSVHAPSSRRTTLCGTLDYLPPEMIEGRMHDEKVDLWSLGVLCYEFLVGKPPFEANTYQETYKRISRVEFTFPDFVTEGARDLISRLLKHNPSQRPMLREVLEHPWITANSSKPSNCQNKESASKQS
Outline: as §1

[13] = test system: NR3A1 (ERα); conditions: of estradiol; cited from earlier work
[14] = test system: ATF6 activity in Hela ATF6 reporter cells; experiment: Endoplasmic reticulum stress assay (ATF6 Renilla luciferase reporter, tunicamycin); assay type: cell-based; conditions: for activity at 1 µM: Homo sapiens, HeLa, single replicates n=1 to n=5, read-out: ER stress [rel. ATF6 activity]
Outline: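 HeLa ATF6 Renilla reporter cells were pretreated 4 h with compounds in 0.1% DMSO, then stimulated with tunicamycin (100 ng/mL) for 18 h. Renilla luminescence (DualGlo) was normalized to 0.1% DMSO control; five independent experiments.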

[15] = molecular target: T9, ABL1 (Homo sapiens, UniProt P00519); experiment: Liability panel screening by DSF: ABL1; assay type: binding; conditions: read-out: Mean ΔTM ABL1
T9 construct: made in house
T9 sequence (P00519 whole entry, species assumed): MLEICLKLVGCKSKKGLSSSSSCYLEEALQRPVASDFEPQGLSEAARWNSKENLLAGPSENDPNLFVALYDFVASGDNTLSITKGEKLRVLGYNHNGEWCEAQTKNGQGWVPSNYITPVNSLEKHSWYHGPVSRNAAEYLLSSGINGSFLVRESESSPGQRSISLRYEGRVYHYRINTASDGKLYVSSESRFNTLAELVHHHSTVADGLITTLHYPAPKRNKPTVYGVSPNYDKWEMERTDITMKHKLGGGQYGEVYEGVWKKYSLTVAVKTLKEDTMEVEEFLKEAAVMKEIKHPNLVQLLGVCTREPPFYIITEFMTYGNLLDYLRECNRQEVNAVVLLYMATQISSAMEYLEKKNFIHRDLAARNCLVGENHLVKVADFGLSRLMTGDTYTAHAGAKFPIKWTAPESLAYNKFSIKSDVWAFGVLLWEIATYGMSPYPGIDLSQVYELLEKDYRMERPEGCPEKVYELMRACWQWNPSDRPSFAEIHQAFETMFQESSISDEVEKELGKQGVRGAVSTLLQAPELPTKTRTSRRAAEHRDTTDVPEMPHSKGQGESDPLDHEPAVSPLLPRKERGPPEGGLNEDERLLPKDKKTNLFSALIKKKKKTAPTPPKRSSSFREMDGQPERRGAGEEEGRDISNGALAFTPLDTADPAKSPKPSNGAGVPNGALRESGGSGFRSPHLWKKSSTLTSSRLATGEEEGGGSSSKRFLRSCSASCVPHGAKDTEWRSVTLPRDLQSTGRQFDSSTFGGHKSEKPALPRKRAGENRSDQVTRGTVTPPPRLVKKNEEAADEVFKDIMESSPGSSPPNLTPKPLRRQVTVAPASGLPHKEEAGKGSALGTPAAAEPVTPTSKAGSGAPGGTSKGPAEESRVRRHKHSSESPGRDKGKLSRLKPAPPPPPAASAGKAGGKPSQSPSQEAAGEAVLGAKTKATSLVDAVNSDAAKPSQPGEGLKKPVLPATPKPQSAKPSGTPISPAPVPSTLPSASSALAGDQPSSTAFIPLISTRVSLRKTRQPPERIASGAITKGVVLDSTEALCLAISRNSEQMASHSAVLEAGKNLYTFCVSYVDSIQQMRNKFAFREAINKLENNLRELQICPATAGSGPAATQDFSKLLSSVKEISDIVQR
Outline: as §1

[16] = test system: HEK293T cells; experiment: Cytotoxicity: apoptosis induction (caspase-3/7 DEVD fluorogenic DNA dye); conditions: 1 µM; HEK293T, 24 h; apoptotic cell count normalized to 0.1% DMSO; single replicates
[17] = test system: Gal4-VP16; assay type: cell-based; conditions: 1 µM; vs. DMSO ctrl; single replicates n=1-3
[18] = molecular target: T10, MAPK1 (Homo sapiens, UniProt P28482); experiment: Liability panel screening by DSF: MAPK1; assay type: binding; conditions: DSF, 20 µM, n=2; read-out: Mean ΔTM MAPK1
T10 construct: made in house
T10 sequence (P28482 whole entry, species assumed): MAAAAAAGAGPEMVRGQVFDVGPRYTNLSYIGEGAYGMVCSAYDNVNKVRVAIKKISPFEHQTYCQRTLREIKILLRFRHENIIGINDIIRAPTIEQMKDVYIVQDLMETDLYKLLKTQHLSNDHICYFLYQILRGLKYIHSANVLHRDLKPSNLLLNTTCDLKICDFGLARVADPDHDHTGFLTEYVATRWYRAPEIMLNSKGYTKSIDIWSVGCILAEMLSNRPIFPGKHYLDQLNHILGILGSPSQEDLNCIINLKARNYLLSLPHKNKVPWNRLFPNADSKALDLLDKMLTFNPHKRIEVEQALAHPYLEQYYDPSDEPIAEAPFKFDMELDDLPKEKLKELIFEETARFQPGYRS
Outline: as §1

[19] = test system: NR3C4 (AR); conditions: read-out: Potency [nM] IC50, NR3C4 (AR); cited from earlier work

SMILES	Mean NFκB response ([1]; 1 µM, 1,5 h)	Mean NFκB response ([1]; 1 µM, 4,5 h)	Mean NFκB response ([1]; 1 µM, 7,5 h)	Mean NFκB response ([1]; 1 µM, 10,5 h)	Mean NFκB response ([1]; 1 µM, 13,5 h)	Mean NFκB response ([1]; 1 µM, 16,6 h)	Mean NFκB response ([1]; 1 µM, 19,5 h)	Mean NFκB response ([1]; 1 µM, 22,5 h)	Mean NFκB response ([1]; 1 µM, 3 h)	Mean NFκB response ([1]; 1 µM, 6 h)	Mean NFκB response ([1]; 1 µM, 9 h)	Mean NFκB response ([1]; 1 µM, 12 h)	Mean NFκB response ([1]; 1 µM, 15 h)	Mean NFκB response ([1]; 1 µM, 18 h)	Mean NFκB response ([1]; 1 µM, 21 h)	Mean NFκB response ([1]; 1 µM, 24 h)	NF-κB activity (inflammatory response to ionomycin/PMA) [1]	Metabolic activity [MA] [4]	Growth rate [GR] [6]	Necrosis induction [NI] [11]	other results
CCCc1c(-c2ccc(O)cc2)nn(-c2ccc(O)cc2)c1-c1ccc(O)cc1 [Propylpyrazoletriol]	3210.54 GFP+-cells/confluence ∙ 1000	4272.75 GFP+-cells/confluence ∙ 1000	9949.66 GFP+-cells/confluence ∙ 1000	19765.59 GFP+-cells/confluence ∙ 1000	27110.00 GFP+-cells/confluence ∙ 1000	32836.67 GFP+-cells/confluence ∙ 1000	36663.33 GFP+-cells/confluence ∙ 1000	39666.67 GFP+-cells/confluence ∙ 1000	3501.92 GFP+-cells/confluence ∙ 1000	6059.91 GFP+-cells/confluence ∙ 1000	15582.73 GFP+-cells/confluence ∙ 1000	23751.78 GFP+-cells/confluence ∙ 1000	30496.67 GFP+-cells/confluence ∙ 1000	34710.00 GFP+-cells/confluence ∙ 1000	37963.33 GFP+-cells/confluence ∙ 1000	40840.00 GFP+-cells/confluence ∙ 1000	no impact on NF-κB activity	0.98 (2×) and 1.03 and 0.91 and 0.97 and 0.94 and 1.18 and 1.14	0.81 and 2.52 and 0.99 and 1.39 and 1.25 and 1.17 and 0.88 and 3.47 and 1.21 and 7.02	1.15 and 0.83 and 0.85 and 0.82	ΔTm at 20 µM [2]: -3.23 °C; ΔTm at 20 µM [3]: -0.78 °C; ΔTm at 20 µM [5]: -2.26 °C; ΔTm at 20 µM [7]: 1.72 °C; ΔTm at 20 µM [8]: -2.86 °C; ΔTm at 20 µM [9]: -2.55 °C; ΔTm at 20 µM [10]: 0.06 °C; ΔTm at 20 µM [12]: 0.0212 °C; rel. activity from literature, NR3A1 (ERα): % of estradiol [13]: 120%; ATF6 activity (tunicamycin-induced endoplasmic reticulum stress) ([14]; Hela ATF6 reporter cells, tunicamycin 100 ng/mL, 18 h, compounds at recommended concentrations, n = 5): failed to reduce ATF6 activity; activity at 1 µM [14]: 96%; ΔTm at 20 µM [15]: -0.07 °C; Apoptosis induction [AI] [16]: 1.04 and 1.18 and 0.79 and 1.33 and 1.63 and 1.23
N#Cc1ccc([C@H]2CCCC[C@H]2O)cc1C(F)(F)F [PF-998425]	2870.31 GFP+-cells/confluence ∙ 1000	3725.32 GFP+-cells/confluence ∙ 1000	8899.00 GFP+-cells/confluence ∙ 1000	17651.00 GFP+-cells/confluence ∙ 1000	24472.33 GFP+-cells/confluence ∙ 1000	29696.67 GFP+-cells/confluence ∙ 1000	33323.33 GFP+-cells/confluence ∙ 1000	35466.67 GFP+-cells/confluence ∙ 1000	3247.46 GFP+-cells/confluence ∙ 1000	5028.67 GFP+-cells/confluence ∙ 1000	13977.00 GFP+-cells/confluence ∙ 1000	20998.00 GFP+-cells/confluence ∙ 1000	27073.33 GFP+-cells/confluence ∙ 1000	31376.67 GFP+-cells/confluence ∙ 1000	34843.33 GFP+-cells/confluence ∙ 1000	36873.33 GFP+-cells/confluence ∙ 1000	tended to enhance NF-κB activity	1.03 and 0.98 (3×) and 1.06 and 0.99 and 1.07 and 1.00	0.92 and 1.38 and 1.07 and 1.15 and 0.96 and 0.86 and 0.80 and 0.57 and 1.49 and 3.80	0.87 and 1.08 and 0.88 and 1.00	ΔTm at 20 µM ([2]; DSF, 20 µM, n=2): -1.04 °C; ΔTm at 20 µM ([3]; DSF, 20 µM, n=2): -0.09 °C; ΔTm at 20 µM ([5]; DSF, 20 µM, n=2): 0.11 °C; VP16 control [fold reporter gene activity] [17]: 1.26 fold reporter gene activity and 1.19 fold reporter gene activity and 1.03 fold reporter gene activity; ΔTm at 20 µM [18]: -0.24 °C; ΔTm at 20 µM ([7]; DSF, 20 µM, n=2): 0.3 °C; ΔTm at 20 µM ([8]; DSF, 20 µM, n=2): -0.66 °C; ΔTm at 20 µM ([9]; DSF, 20 µM, n=2): -1.51 °C; ΔTm at 20 µM ([10]; DSF, 20 µM, n=2): -0.43 °C; ΔTm at 20 µM ([12]; DSF, 20 µM, n=2): -1.09 °C; activity at 1 µM [14]: 87%; ΔTm at 20 µM ([15]; DSF, 20 µM, n=2): 0.55 °C; Apoptosis induction [AI] [16]: 1.04 and 1.14 and 1.23 and 0.96 and 0.64 and 1.74; IC50 [19]: 43 ± 12 nM
